Reference: patent US12576150B2, “CD4+ T cells expressing IL-10 and chimeric antigen receptors and uses thereof” (TR1X, INC., priority 2021, dated 2026)

Test system: NLPR3 inflammasome, LPS activated monocytes
Assay: IL-1β production by LPS activated monocytes
Type: cell-based, human
Conditions: with anti-IL-10 receptor antibody
Procedure: CD14^+ monocytes were isolated from PBMC using a pan monocyte isolation kit (Miltenyi Biotec, Bergisch Gladbach, Germany) and plated in 96 flat microtiter wells at 2×10^5/200 μL per well and cultured in the presence of LPS. The cells were cultured further in the presence of Z-YVADfmk (20 μM), MMC950 (10 μM), IL-10 (10 ng/ml) or various concentrations of single- or pooled donor […] cell supernatants as summarized in Table 1.
The supernatants were obtained from single- or pooled donor CD4^IL-10 cells activated for 72 hours with a combination of CD3 and CD28 antibodies as described previously. (Andolfi et al. 2012, Mol. Therapy Vol. 20, 1778-1790, Locafaro et al. Mol Ther 2017, 25, 2254) In some cases (FIGS. 35C and 35D), the monocytes were incubated with LPS in combination with the NLPR3 inflammasome activator nigericin (“NIG”) which was added during the last 30 minutes of the LPS activation.

| SMILES | effect of anti-IL-10 receptor antibody on the inhibition of IL-1β production |
| --- | --- |
| CC(C)(O)c1coc(S(=O)(=O)NC(=O)Nc2c3c(cc4c2CCC4)CCC3)c1 [MCC950] | no effect |
| COC(=O)C[C@H](NC(=O)[C@H](C)NC(=O)[C@@H](NC(=O)[C@H](Cc1ccc(O)cc1)NC(=O)OCc1ccccc1)C(C)C)C(=O)CF [Z-YVADfmk] | no effect |
